Measured values as given in the supplement of paper PMC10307832.

Assays:
Assay in all cases: relative viability (nuclei count vs DMSO), 5 days (fraction); higher = more cells survive
[1] = compound: COc1cc2nccc(Oc3ccc(NC(=O)C4(C(=O)Nc5ccc(F)cc5)CC4)cc3)c2cc1OC [Cabozantinib] + CC1(C)CCC(c2ccc(Cl)cc2)=C(CN2CCN(c3ccc(C(=O)NS(=O)(=O)c4ccc(N[C@H](CCN5CCOCC5)CSc5ccccc5)c(S(=O)(=O)C(F)(F)F)c4)cc3)CC2)C1 [Navitoclax] (partner 0.5 µM)
Procedure, shortened: (§1)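 For relative viability, nuclei counts in treated wells were divided by those in vehicle wells. Lung cancer cell lines had been pin-tool dosed in 1536-well plates the day after seeding and cultured for 5 days, then fixed and stained in one step (final 0.05% Triton X-100, 1% formaldehyde, 1 ug/ml Hoechst) and imaged at 4×. Doses were one drug alone or a fixed anchor-drug dose plus five library-drug doses (not always all listed) in √10 steps, and values are duplicate-plate medians.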

Zosuquidar + Decitabine = compound: O[C@@H](COc1cccc2ncccc12)CN1CCN([C@@H]2c3ccccc3[C@@H]3[C@H](c4ccccc42)C3(F)F)CC1 [Zosuquidar] + Nc1ncn([C@H]2C[C@H](O)[C@@H](CO)O2)c(=O)n1 [Decitabine] (partner 2 µM)
Procedure, shortened: as §1

Zosuquidar + Vorinostat = compound: O[C@@H](COc1cccc2ncccc12)CN1CCN([C@@H]2c3ccccc3[C@@H]3[C@H](c4ccccc42)C3(F)F)CC1 [Zosuquidar] + O=C(CCCCCCC(=O)Nc1ccccc1)NO [Vorinostat] (partner 1 µM)
Procedure, shortened: as §1

Zosuquidar + AZD7762 = compound: O[C@@H](COc1cccc2ncccc12)CN1CCN([C@@H]2c3ccccc3[C@@H]3[C@H](c4ccccc42)C3(F)F)CC1 [Zosuquidar] + NC(=O)Nc1cc(-c2cccc(F)c2)sc1C(=O)N[C@H]1CCCNC1 [AZD7762] (partner 0.2 µM)
Procedure, shortened: as §1

| Cell Line | relative viability ([1]; first compound 0.02 µM) | relative viability ([1]; first compound 0.06325 µM) | relative viability ([1]; first compound 0.2 µM) | relative viability ([1]; first compound 0.6325 µM) | relative viability ([1]; first compound 2 µM) | relative viability (Zosuquidar + Decitabine; first compound 0.01 µM) | relative viability (Zosuquidar + Decitabine; first compound 0.03162 µM) | relative viability (Zosuquidar + Decitabine; first compound 0.1 µM) | relative viability (Zosuquidar + Decitabine; first compound 0.3162 µM) | relative viability (Zosuquidar + Decitabine; first compound 1 µM) | relative viability (Zosuquidar + Vorinostat; first compound 0.01 µM) | relative viability (Zosuquidar + Vorinostat; first compound 0.03162 µM) | relative viability (Zosuquidar + Vorinostat; first compound 0.1 µM) | relative viability (Zosuquidar + Vorinostat; first compound 0.3162 µM) | relative viability (Zosuquidar + Vorinostat; first compound 1 µM) | relative viability (Zosuquidar + AZD7762; first compound 0.01 µM) | relative viability (Zosuquidar + AZD7762; first compound 0.03162 µM) | relative viability (Zosuquidar + AZD7762; first compound 0.1 µM) | relative viability (Zosuquidar + AZD7762; first compound 0.3162 µM) | relative viability (Zosuquidar + AZD7762; first compound 1 µM) |
| --- | --- | --- | --- | --- | --- | --- | --- | --- | --- | --- | --- | --- | --- | --- | --- | --- | --- | --- | --- | --- |
| SK-MES-1 | 1.28 | 1.24 | 1.22 | 1.23 | 1.19 | 0.343 | 0.36 | 0.347 | 0.422 | 0.402 | 1.03 | 1.06 | 0.929 | 1.13 | 1.18 | – | – | – | – | – |
| HCC-366 | 1.15 | 1.11 | 1.16 | 1.03 | 1.06 | 0.322 | 0.291 | 0.429 | 0.515 | 0.277 | 0.309 | 0.424 | 0.342 | 0.897 | 0.352 | 0.23 | 0.227 | 0.285 | 0.369 | 0.298 |
| NCI-H3122 | 0.988 | 1.03 | 0.987 | 1.03 | 1.02 | 0.394 | 0.449 | 0.417 | 0.508 | 0.457 | 0.984 | 1.03 | 0.894 | 1.07 | 1.07 | 0.812 | 0.916 | 0.844 | 1.01 | 1 |
| COR-L 105 | 0.789 | 0.771 | – | 0.657 | 0.743 | 0.645 | 0.712 | 0.636 | 0.716 | 0.652 | 0.961 | 0.826 | 0.777 | 0.891 | 0.875 | – | – | – | – | – |
| 201T | 1.2 | 1.25 | 1.19 | 1.2 | 1.24 | 0.848 | 0.858 | 0.837 | 0.867 | 0.864 | 0.886 | 0.942 | 0.799 | 0.997 | 0.962 | 0.592 | 0.623 | 0.67 | 0.685 | 0.731 |
| NCI-H2228 | 0.784 | 0.689 | 0.725 | 0.824 | 0.805 | – | – | – | – | – | 0.972 | 0.61 | 0.935 | 0.895 | 0.869 | – | – | – | – | – |
| LC-2-ad | 0.454 | 0.57 | 0.541 | 0.35 | 0.325 | 0.878 | 0.922 | 0.876 | 0.725 | 0.776 | 0.681 | 0.774 | 0.722 | 0.683 | 0.674 | 0.78 | 0.855 | 0.883 | 0.842 | 0.787 |
| NCI-H2087 | 1.03 | 1.1 | 1.06 | 0.985 | 0.981 | 0.262 | 0.3 | 0.305 | 0.206 | 0.33 | 0.666 | 0.707 | 0.739 | 0.667 | 0.77 | 1.22 | 1.39 | 1.32 | 1.41 | 1.26 |
| LK-2 | 0.642 | 1 | 0.842 | 0.886 | 0.794 | 0.247 | 0.361 | 0.28 | 0.372 | 0.304 | 0.232 | 0.311 | 0.283 | 0.298 | 0.335 | 0.496 | 0.428 | 0.328 | 0.541 | 0.279 |
| H3255 | 0.491 | 0.676 | – | 0.687 | 0.553 | 0.559 | 0.592 | 0.497 | 0.696 | 0.716 | 0.787 | 0.837 | 0.613 | 0.824 | 0.756 | 1.03 | 0.832 | 0.766 | 0.95 | 0.795 |
| NCI-H2347 | 0.83 | 0.994 | 0.803 | 0.612 | 0.375 | 0.689 | 0.648 | 0.657 | 0.694 | 0.643 | 0.531 | 0.713 | 0.499 | 0.615 | 0.56 | 0.701 | 0.811 | 0.564 | 0.808 | 0.764 |
| CAL-12T | 1.51 | 1.2 | 1.37 | 1.17 | 1.46 | – | – | – | – | – | 0.843 | 0.692 | 0.77 | 0.813 | 0.845 | 0.586 | 0.626 | 0.469 | 0.632 | 0.738 |
| A-427 | 0.988 | 1.03 | 0.998 | 0.978 | 0.978 | 0.582 | 0.561 | 0.584 | 0.653 | 0.557 | 0.86 | 0.853 | 0.836 | 0.94 | 0.511 | 0.759 | 0.798 | 0.693 | 0.764 | 0.705 |
| HARA | 1.17 | 1.16 | 1.12 | 1.19 | 1.17 | 0.474 | 0.542 | 0.607 | 0.492 | 0.629 | 0.657 | 0.526 | 0.606 | 0.556 | 0.459 | 0.429 | 0.343 | 0.304 | 0.344 | 0.322 |
| NCI-H2170 | 0.579 | 0.611 | 0.559 | 0.652 | 0.62 | 0.451 | 0.476 | 0.482 | 0.466 | 0.512 | 0.828 | 0.784 | 0.763 | 0.844 | 0.826 | 0.866 | 0.916 | 0.776 | 0.898 | 0.858 |
| NCI-H2023 | 1.07 | 1.05 | 0.931 | 0.872 | 0.691 | 0.195 | 0.281 | 0.235 | 0.246 | 0.268 | 0.529 | 0.837 | 0.596 | 0.732 | 0.541 | – | – | – | – | – |
| ABC-1 | – | – | – | – | – | 1.27 | 1.15 | 1.15 | 1.24 | 1.15 | 1.17 | 1.04 | 1 | 1.13 | 0.81 | 0.69 | 0.864 | 0.665 | 0.717 | 0.733 |
| IA-LM | 1.1 | 0.912 | 1.02 | 1.01 | 0.965 | – | – | – | – | – | 1.07 | 0.967 | – | 1.07 | 1.04 | – | – | – | – | – |
